“Also recorded” adds a separate entry of the source.
Key:
[1] = tested on: UltraGlo™ luciferase; assay: Luminescence assay of 5,5-substituted analogs as substrates for UltraGlo™ luciferase (FIG. 7); format: biochemical; conditions: 1 mM substrate, 0.005 mg/ml enzyme, 0.5 mM ATP, 1 minute at room temperature
Method: (§1) To determine if luciferin analogs with substitutions at the 5,5 position could be substrates for UltraGlo™ luciferase, tests were performed with analogs containing various di-substitutions of alkyl groups and closed ring structures in luminescence assays. A solution of 0.005 mg/ml UltraGlo™ luciferase (Promega Corp) prepared in 1×TBS+1% Prionex was combined with 0.5 mM ATP in Bright-Glo™ assay buffer (Promega E263A). All substrates were diluted separately in DMSO to 20 mM. After a 30-minute incubation at room temperature, diluted substrate was added to 1 mM final concentration in the reaction and mixed by pipetting. Reactions were further incubated at room temperature for 1 minute, and luminescence measured on a GLOMAX® Multi+ plate luminometer.

[2] = tested on: UltraGlo luciferase; assay: RLU of 5,5-disubstituted luciferin analogs normalized to racemic luciferins (Table 1); format: biochemical; conditions: normalized to 1 mM racemic luciferins under identical conditions
Method: Further tests were conducted at various substrate concentrations in the presence of sub-saturating D-Luciferin as a means to compare the binding affinity of the substrates. Solutions of 0.005 mg/ml Click Beetle-Green luciferase (CBG) or UltraGlo luciferase were prepared in Bright-Glo™ assay buffer (Promega E263A) with 3 mM ATP. A 2 mM solution of each substrate was then prepared in water containing D-Luciferin (sub-saturating). Each substrate+D-Luciferin was two-fold serially diluted in luciferin free water. A sample of 50 μL of each substrate dilution was combined with 50 μL of the enzyme solution. Samples were incubated at room temperature for one minute, and luminescence was measured on a GLOMAX® Multi+ plate luminometer. […] (FIG. 5A-F). RLU values for certain representative compounds (normalized to racemic luciferins under identical conditions) are provided in Table 1 above. For certain representatative compounds, substrate titration tests were performed using procedures as described herein without comparison to luciferins, therefore providing RLU values not normalized to those of luciferins.
as §1

[3] = tested on: firefly or click beetle luciferases; conditions: Branchini et al., J. Am. Chem. Soc. 2002; cited from earlier work
[4] = Thermal stability of luciferin stock solutions at 60° C. by RP-HPLC; conditions: stock solution pH=6.0, 7.0 mM; for Thermal stability (decomposition in solution): detergents, ULTRA-GLO luciferase 0.1 mg/mL
[5] = tested on: ULTRA-GLO™ luciferase; assay: Inhibition of luciferase activity by dehydroluciferins; format: biochemical; conditions: titrated from 0.25 mM in 0.25 mM racemic luciferin, 0.1 mM ATP, 1 minute
Method: Inhibition of luciferase activity by dehydroluciferins: ULTRA-GLO™ luciferase (Promega, 0.1 mg/mL)+0.1% PRIONEX® in detection reagent buffer was prepared. The solution was divided into 2 portions with 0.25 mM Racemic H-Luciferin added to one portion and 0.25 mM racemic NH2 luciferin to the other portion. H-dehydroluciferin (0.25 mM) was added to an aliquot of the racemic H-Luciferin solution, and NH2-dehydroluciferin (0.25 mM) was added to an aliquot of the racemic NH2 luciferin solution. 2× serial dilutions of each of the dehydroluciferin samples were prepared using the racemic solutions as a diluent (500 μL of dehydroluciferin solution added to 500 μL of ULTRA-GLO™+racemic luciferin). 50 μL of each titration series was then added to […] 0.1 mM ATP. The samples were incubated for 1 minute, and the luminescence was measured on GLOMAX®-Multi+ plate luminometer (n=6).

[6] = tested on: recombinant beetle luciferases; conditions: only the D-form; Viviani et al., Biochemistry 2014; cited from earlier work

SMILES	RLU% (RLU normalized to the one generated by 1 mM racemic luciferins under identical conditions) [2]	other results
O=C(O)C1N=C(c2nc3ccc(O)cc3s2)SC12CCOCC2 (stereo not drawn) [CS0439, 2-(6-hydroxybenzo[d]thiazol-2-yl)-8-oxa-1-thia-3-azaspiro[4.5]dec-2-ene-4-carboxylic acid]	0.09%	–
CC1CCC2(CC1)SC(c1nc3ccc(O)cc3s1)=NC2C(=O)O (stereo not drawn) [CS0404, 2-(6-hydroxybenzo[d]thiazol-2-yl)-8-methyl-1-thia-3-azaspiro[4.5]dec-2-ene-4-carboxylic acid]	0.31%	–
CN1CCC2(CC1)SC(c1nc3ccc(O)cc3s1)=NC2C(=O)O (stereo not drawn) [CS0420, 2-(6-hydroxybenzo[d]thiazol-2-yl)-8-methyl-1-thia-3,8-diazaspiro[4.5]dec-2-ene-4-carboxylic acid]	0.20%	–
CC1(C)SC(c2nc3ccc(O)cc3s2)=NC1C(=O)O (stereo not drawn) [III-a, 2-(6-hydroxybenzo[d]thiazol-2-yl)-5,5-dimethyl-4,5-dihydrothiazole-4-carboxylic acid]	–	Light production via luciferase mediated processes [3]: incapable of producing light; Thermal stability (decomposition in solution) [4]: virtually no decomposition; also recorded: more thermally stable than the unsubstituted luciferin
O=C(O)c1csc(-c2nc3ccc(O)cc3s2)n1 [H-dehydroluciferin]	–	Inhibition of luciferase activity [5]: potent inhibitors
CCC1(CC)SC(c2nc3ccc(O)cc3s2)=NC1C(=O)O (stereo not drawn) [CS0330, 5,5-diethyl-2-(6-hydroxybenzo[d]thiazol-2-yl)-4,5-dihydrothiazole-4-carboxylic acid]	0.60%	–
Nc1ccc2nc(-c3nc(C(=O)O)cs3)sc2c1 [NH2-dehydroluciferin]	–	Inhibition of luciferase activity [5]: potent inhibitors
O=C(O)[C@H]1CSC(c2nc3ccc(O)cc3s2)=N1 [unsubstituted luciferin]	–	Thermal stability (decomposition in solution) [4]: significant decomposition; Major degradation product ([4]; with or without ULTRA-GLO luciferase): dehydroluciferin
CCCC1(CCC)SC(c2nc3ccc(O)cc3s2)=NC1C(=O)O (stereo not drawn) [CS0427, 2-(6-hydroxybenzo[d]thiazol-2-yl)-5,5-dipropyl-4,5-dihydrothiazole-4-carboxylic acid]	0.16%	–
O=C(O)C1N=C(c2nc3ccc(O)cc3s2)SC1(Cc1ccccc1)Cc1ccccc1 (stereo not drawn) [CS0396, 5,5-dibenzyl-2-(6-hydroxybenzo[d]thiazol-2-yl)-4,5-dihydrothiazole-4-carboxylic acid]	1.0%	Luminescence as substrate [1]: measurable luminescence values
O=C(O)C1N=C(c2nc3ccc(O)cc3s2)SC12CC2 (stereo not drawn) [CS0333, 5-(6-hydroxybenzo[d]thiazol-2-yl)-4-thia-6-azaspiro[2.4]hept-5-ene-7-carboxylic acid]	0.27%	–
CC1(C)SC(c2nc3ccc(N)cc3s2)=NC1C(=O)O (stereo not drawn) [III-b, 2-(6-aminobenzo[d]thiazol-2-yl)-5,5-dimethyl-4,5-dihydrothiazole-4-carboxylic acid]	–	Light production [6]: produce light; Thermal stability (decomposition in solution) [4]: virtually no decomposition; also recorded: more thermally stable than the unsubstituted luciferin

Continued, in another order:

RLU% (RLU normalized to the one generated by 1 mM racemic luciferins under identical conditions) [2]	SMILES	other results
0.64%	CCC1(CC)SC(c2nc3cc(F)c(O)cc3s2)=NC1C(=O)O (stereo not drawn) [CS0388, 5,5-diethyl-2-(5-fluoro-6-hydroxybenzo[d]thiazol-2-yl)-4,5-dihydrothiazole-4-carboxylic acid]	Luminescence as substrate [1]: measurable luminescence values
0.13%	O=C(O)C1N=C(c2nc3ccc(O)cc3s2)SC12CCCCCC2 (stereo not drawn) [CS0397, 2-(6-hydroxybenzo[d]thiazol-2-yl)-1-thia-3-azaspiro[4.6]undec-2-ene-4-carboxylic acid]	–
0.29%	O=C(O)C1N=C(c2nc3ccc(O)cc3s2)SC12CCC2 (stereo not drawn) [CS0329, 6-(6-hydroxybenzo[d]thiazol-2-yl)-5-thia-7-azaspiro[3.4]oct-6-ene-8-carboxylic acid]	–
0.43%	O=C(O)C1N=C(c2nc3ccc(O)cc3s2)SC12CCCC2 (stereo not drawn) [CS0326, 2-(6-hydroxybenzo[d]thiazol-2-yl)-1-thia-3-azaspiro[4.4]non-2-ene-4-carboxylic acid]	–
0.22%	O=C(O)C1N=C(c2nc3ccc(O)cc3s2)SC12CCCCC2 (stereo not drawn) [CS0325, 2-(6-hydroxybenzo[d]thiazol-2-yl)-1-thia-3-azaspiro[4.5]dec-2-ene-4-carboxylic acid]	–
0.13%	O=C(O)C1N=C(c2nc3cc(F)c(O)cc3s2)SC12CCCCC2 (stereo not drawn) [CS0392, 2-(5-fluoro-6-hydroxybenzo[d]thiazol-2-yl)-1-thia-3-azaspiro[4.5]dec-2-ene-4-carboxylic acid]	Luminescence as substrate [1]: measurable luminescence values

Reference: patent US10913972B2, “5,5-disubstituted luciferins and their use in luciferase-based assays” (Promega Corporation, priority 2016, dated 2021)
